Earlier results as cited in US8187640B2, “Low viscosity liquid polymeric delivery system” (Dunn Research & Consulting, LLC, priority 2009, dated 2012).

System: Male Sprague Dawley rats
Settings: given in an aqueous solution

**Q.** For buprenorphine HCL, which “Duration of efficacy in the rat tail flick test” value is on record?
**A.** about 5 hours
